Earlier results, collected in patent US20230201147A1, “COCRYSTAL ANTIOXIDANTS OF PROTOCATECHUIC ACID WITH L-THEANINE FOR THE TREATMENT OF OXIDATIVE STRESS AND INFLAMMATORY CONDITIONS” (priority 2020, published 2023).

Tested on: thrombin-stimulated thromboxane formation
Conditions: whole blood

CCNC(=O)CC[C@H](N)C(=O)O [L-theanine, N-ethyl-L-glutamine]
inhibition of thrombin-stimulated thromboxane formation: potent inhibitor
